Legend:
K562 cells = test: K562 cell proliferation assay (CellTiter-Glo); assay type: cell-based; details: Homo sapiens; K562 cell line, 72 hours, cell viability
Experimental: K562 cells, cultured in Iscove's Modified Dulbecco's Media (IMDM) supplemented with 10% FBS, were harvested at 50-80% confluency and plated at 2,000 cells per well in 384-well tissue culture plates. A subset of wells contained media only (low control, LC). Compounds were serially diluted in DMSO. 40 nL of compound or DMSO only (high control, HC) were added to each well using an Echo 550 liquid handler (Labcyte). The plates were placed in a 37° C. incubator with 5% CO2 for 72 hours. Cell viability was measured using a CellTiter-Glo luminescent cell viability assay (Promega), which allows for relative quantification of metabolically active cells by luminescence-based measurements of intracellular ATP concentrations. Briefly, plates were removed from the incubator and equilibrated for 15 minutes at room temperature prior to the addition of 40 μL of CellTiter-Glo reagent. Plates were then incubated for 30 minutes at room temperature. Luminescence was measured using an EnSpire plate reader (Perkin Elmer). As noted above, luminescence values from wells with DMSO only or media without cells were used as high and low controls (HC and LC), respectively. Normalized percent viability was calculated as follows: percent viability=100×(LumSample−LumLC)/(LumHC−LumLC). IC50 values were calculated using the XLFit software.

PDGFRα = PDGFRα (Homo sapiens (Human), UniProt P16234); test: Luminescence-based PDGFRα kinase assay (Km ATP), ADP-Glo; assay type: biochemical; details: compound at 100 nM concentration
PDGFRα, sequence (P16234 24-1089): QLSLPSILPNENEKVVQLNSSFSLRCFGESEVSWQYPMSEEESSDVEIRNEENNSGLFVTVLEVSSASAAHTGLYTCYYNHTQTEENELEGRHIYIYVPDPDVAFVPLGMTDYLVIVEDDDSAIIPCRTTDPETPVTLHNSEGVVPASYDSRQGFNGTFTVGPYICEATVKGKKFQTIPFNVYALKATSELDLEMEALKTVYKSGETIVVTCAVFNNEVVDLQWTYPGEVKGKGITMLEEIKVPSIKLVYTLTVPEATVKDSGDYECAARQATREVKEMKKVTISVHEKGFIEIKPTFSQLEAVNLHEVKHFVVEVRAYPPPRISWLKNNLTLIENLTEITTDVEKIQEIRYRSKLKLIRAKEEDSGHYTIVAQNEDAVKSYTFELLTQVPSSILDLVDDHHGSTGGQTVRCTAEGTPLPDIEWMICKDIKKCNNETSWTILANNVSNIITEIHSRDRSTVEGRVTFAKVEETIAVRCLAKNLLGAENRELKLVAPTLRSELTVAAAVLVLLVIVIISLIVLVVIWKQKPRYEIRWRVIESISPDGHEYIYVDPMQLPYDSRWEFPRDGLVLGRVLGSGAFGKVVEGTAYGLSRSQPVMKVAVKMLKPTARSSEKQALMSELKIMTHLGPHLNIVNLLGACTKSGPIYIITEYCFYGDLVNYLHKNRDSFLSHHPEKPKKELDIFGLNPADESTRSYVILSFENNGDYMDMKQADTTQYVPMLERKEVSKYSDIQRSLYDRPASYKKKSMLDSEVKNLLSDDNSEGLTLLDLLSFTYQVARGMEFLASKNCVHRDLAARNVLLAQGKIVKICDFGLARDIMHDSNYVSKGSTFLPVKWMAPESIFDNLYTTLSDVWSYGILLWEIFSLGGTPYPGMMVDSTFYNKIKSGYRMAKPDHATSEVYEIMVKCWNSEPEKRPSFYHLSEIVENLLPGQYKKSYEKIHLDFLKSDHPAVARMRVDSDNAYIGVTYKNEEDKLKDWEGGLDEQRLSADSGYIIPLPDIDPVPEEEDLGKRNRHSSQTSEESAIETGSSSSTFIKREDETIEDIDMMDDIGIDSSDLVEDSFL
Experimental: (§1) Kinase activity of PDGFRα was measured using the ADP-Glo system (Promega). Compounds were diluted in DMSO at 100 μM. 20 nL of compound or DMSO only (high control, HC) were added to a 384-well plate (OptiPlate-384, PerkinElmer) using an Echo550 liquid handler (Labcyte). 15 μL of kinase solution (10 mM MgCl2, 0.01% Brij-35, 2 mM DTT, 0.05% BSA, 1 mM EGTA, 50 mM HEPES pH 7.5, and 13.3 nM PDGFRα [Carna Biosciences]) were added to each well of the 384-well plate containing the compounds. No enzyme control wells were included (low control, LC). The plate was incubated at room temperature for 30 minutes. 5 μL of a second solution containing 10 mM MgCl2, 0.01% Brij-35, 2 mM DTT, 0.05% BSA, 1 mM EGTA, 50 mM HEPES pH 7.5, 0.8 μg/ml Poly(Glu-Tyr) (Sigma, Cat No 97105-00-5), and 120 μM ATP were added to each well to start the kinase reaction. The plate was incubated for 90 minutes at room temperature. 20 μL of ADP-Glo reagent (Promega) were then added to each well and the plate was incubated for 40 minutes at room temperature. […] During this step, ADP was converted to ATP, a substrate for luciferase, to produce luminescence signal. Luminescence was measured on an Envision plate reader (Perkin Elmer). Luminescence signal positively correlates with kinase activity. The percent inhibition of kinase activity was calculated as follows: percent inhibition=100×(LumHC−LumSample)/(LumHC−LumLC). […]

SRC = SRC (Homo sapiens (Human), UniProt P12931); test: Luminescence-based SRC kinase assay (Km ATP), ADP-Glo; assay type: biochemical; details: compound at 100 nM concentration
SRC, sequence (P12931 whole entry): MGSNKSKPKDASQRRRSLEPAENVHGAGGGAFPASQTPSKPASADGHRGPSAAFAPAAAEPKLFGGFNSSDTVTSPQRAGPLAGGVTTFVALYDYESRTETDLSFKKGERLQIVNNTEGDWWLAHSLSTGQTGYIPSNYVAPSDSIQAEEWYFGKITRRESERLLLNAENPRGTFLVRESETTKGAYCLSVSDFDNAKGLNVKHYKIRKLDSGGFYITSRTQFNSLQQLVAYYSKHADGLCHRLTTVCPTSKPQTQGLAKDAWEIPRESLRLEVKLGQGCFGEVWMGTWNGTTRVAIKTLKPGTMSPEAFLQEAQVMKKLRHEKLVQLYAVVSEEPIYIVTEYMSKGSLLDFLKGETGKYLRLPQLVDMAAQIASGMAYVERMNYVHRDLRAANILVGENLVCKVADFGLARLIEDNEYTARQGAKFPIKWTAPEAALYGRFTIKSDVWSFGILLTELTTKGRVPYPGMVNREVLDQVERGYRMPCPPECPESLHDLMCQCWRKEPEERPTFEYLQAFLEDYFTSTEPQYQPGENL
Experimental: as §1, with “SRC” for “PDGFRα”, “0.532” for “13.3”, “6 μM Peptide 4 (Perkin Elmer,” for “0.8 μg/ml Poly(Glu-Tyr) (Sigma,”, “760348),” for “97105-00-5),”, “200” for “120”

Compound	IC50 (K562 cells) [nM]	inhibition at 0.1 µM (PDGFRα) [%]	inhibition at 0.1 µM (SRC) [%]
Cc1c(F)cncc1-c1cc2cnc(NC(=O)C3CC3)cc2n(C)c1=O [Compound 2, N-[3-(5-fluoro-4-methylpyridin-3-yl)-1-methyl-2-oxo-1,6-naphthyridin-7-yl]cyclopropanecarboxamide]	28	33	77
Cc1c(F)cncc1-c1cc2cnc(NC(=O)[C@@H]3C[C@@H]3F)cc2n(C)c1=O [Compound 28, (1S,2S)-2-fluoro-N-[3-(5-fluoro-4-methylpyridin-3-yl)-1-methyl-2-oxo-1,6-naphthyridin-7-yl]cyclopropane-1-carboxamide]	47	15	48
